Experimental data published in publication PMC8508694, “Insights into the Genetic Variations of Human Cytochrome P450 2C9: Structural Analysis, Characterization and Comparison” (International Journal of Molecular Sciences, 2021).

How the values were obtained:
CYP2C9*8 = target: T1, CYP2C9*8 (Homo sapiens, UniProt P11712, R150H/V490I); experiment: ([…] Å) and ITC; assay type: binding
T1 construct: residues 1 to 23 (N-terminal transmembrane anchor) replaced with MAKKT, V490I, C-terminal four-histidine tag

CYP2C9*3 = target: T2, CYP2C9*3 (Homo sapiens, UniProt P11712, I359L/V490I); experiment: ITC; assay type: binding
T2 construct: residues 1 to 23 (N-terminal transmembrane anchor) replaced with MAKKT, V490I, C-terminal four-histidine tag
T2 sequence (P11712 24-490 I359L/V490I): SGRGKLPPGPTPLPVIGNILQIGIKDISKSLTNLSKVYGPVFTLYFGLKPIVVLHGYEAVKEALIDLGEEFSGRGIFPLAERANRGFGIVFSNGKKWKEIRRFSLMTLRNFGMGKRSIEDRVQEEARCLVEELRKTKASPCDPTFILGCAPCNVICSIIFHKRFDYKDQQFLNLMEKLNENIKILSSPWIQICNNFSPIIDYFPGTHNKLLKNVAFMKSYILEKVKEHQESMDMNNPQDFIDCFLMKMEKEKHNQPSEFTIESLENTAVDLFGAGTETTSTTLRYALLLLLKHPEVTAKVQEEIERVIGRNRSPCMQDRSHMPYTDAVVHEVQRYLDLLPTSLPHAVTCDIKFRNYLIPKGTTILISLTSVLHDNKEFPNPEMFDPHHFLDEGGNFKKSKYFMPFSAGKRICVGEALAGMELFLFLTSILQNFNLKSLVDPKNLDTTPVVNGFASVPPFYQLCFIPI

T1 sequence (P11712 24-490 R150H/V490I): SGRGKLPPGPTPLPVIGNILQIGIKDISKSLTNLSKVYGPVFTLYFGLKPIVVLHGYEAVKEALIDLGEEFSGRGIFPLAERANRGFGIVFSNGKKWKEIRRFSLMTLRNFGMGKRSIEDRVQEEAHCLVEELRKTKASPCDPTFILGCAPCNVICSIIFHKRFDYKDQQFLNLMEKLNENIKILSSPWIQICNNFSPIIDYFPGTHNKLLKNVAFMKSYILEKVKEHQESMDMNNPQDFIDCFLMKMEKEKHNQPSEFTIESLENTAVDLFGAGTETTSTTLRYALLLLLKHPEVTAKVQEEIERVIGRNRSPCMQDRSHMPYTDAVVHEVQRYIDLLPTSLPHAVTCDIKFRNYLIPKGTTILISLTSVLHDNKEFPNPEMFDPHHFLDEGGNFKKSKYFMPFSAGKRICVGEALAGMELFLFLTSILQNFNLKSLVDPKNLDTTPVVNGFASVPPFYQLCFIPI

Work on `CCCCc1nc(Cl)c(CO)n1Cc1ccc(-c2ccccc2-c2nn[nH]n2)cc1` [losartan] yielded a Kd (CYP2C9*8) of 8.95 ± 0.97 µM and a Kd (CYP2C9*3) of 24.5 ± 2.7 µM.
